Results taken from patent US20250134889A1, “TARGETING IRE1 KINASE AND FMRP FOR PROPHYLAXIS, MANAGEMENT AND TREATMENT OF ATHEROSCLEROSIS” (CEDARS-SINAI MEDICAL CENTER, priority 2022, published 2025).

System: IRE1 kinase activity
Test: ER stress-induced IRE1 and FMRP phosphorylation in transfected MEFs (western blot)
Format: cell-based, mouse
Details: AMG-18 25 μM 1 hour pre-treatment, TG 600 nM 4 hours
Protocol: FIGS. 1A-1K depict FMRP is a new inositol-requiring enzyme-1 (IRE1) kinase substrate. A representative blot is shown from at least n=3 independent experiments. Data are mean±SEM. Unpaired 1-test with Welch's correction or paired 1-test. * P≤0.05, ** P≤0.01, *** P≤0.001. • 1A. STING analysis of published IRE1 interactome proteins in relation to FMRP (Acosta-Alvear et al., 2018). • 1B. HEK293T cells were co-transfected with IRE1 and FMRP plasmids and stimulated with TG (600 nM) or TM (1 mg/ml) for 2 hours. Protein lysates were immunoprecipitated (IP) with anti-IRE1 or IgG (control) antibodies and analyzed by Western blotting using specific antibodies for FMRP and IRE1 (n=3). • 1C. RAW 264.7 mouse macrophages were treated with either oxLDL (50 μg/ml) or TG (300 nM) for 6 hours. Protein lysates were treated with λ Phosphatase (PPase) for 30 minutes and analyzed by western blotting using specific antibodies for pFMRP, FMRP, pIRE1, IRE1 and β-Actin. pFMRP/FMRP fold induction is depicted above the blots (n=6). • 1D. […] Protein lysates were analyzed by western blotting using specific antibodies for pFMRP, FMRP, pIRE1, IRE1 and β-Actin. pFMRP/FMRP-fold induction is depicted above the blots (n=5). • 1E. […] Protein lysates were analyzed by western blotting using specific antibodies for pFMRP, FMRP, pIRE1, IRE1 and β-Actin. pFMRP/FMRP fold induction is depicted above the blots (n=4). • 1F. […]

Structure (SMILES): Cc1ccc2c(NS(=O)(=O)c3ccccc3Cl)cccc2c1Oc1ncccc1-c1ccnc(N[C@H]2CCCNC2)n1 [AMG-18]
- FMRP phosphorylation (pFMRP/FMRP): clearly reducing
- IRE1 phosphorylation: prevented
